# Molecular target: Myc/Max binding to DNA (Homo sapiens, UniProt P01106)
# Assay: Electrophoretic mobility shift assay (EMSA) of Myc/Max binding to DNA
# Assay type: biochemical
# Conditions: for remaining activity at 100 µM / Bound DNA (%) (100uM): 100 uM test compound; for remaining activity at 100 µM: read-out: Bound DNA (%) (100uM); for remaining activity at 50 µM: 50 uM test compound, read-out: Bound DNA (%) (50uM); for remaining activity at 200 µM: read-out: Bound DNA (%) (200uM)
# Description: We also tested our best hit compound Min9 (NUCC-0176234) and newly synthesized analogs for effects of these compounds on Myc/Max binding to DNA in electrophoretic mobility shift assays (EMSAs). (See FIG. 5a and FIG. 5b). We expected the active compounds to impair Myc/Max binding to DNA. Several strucutural analogs of Min9 were tested over multiple doses for inhibiting Myc-DNA binding and we observed a dose-dependent inhibition. (See FIG. 5c).
# Additional compounds were synthesized and tested in the EMSA assay at concentrations of 200 μM, 100 μM, and 50 μM.
# Chain of Myc/Max binding to DNA (P01106 whole entry): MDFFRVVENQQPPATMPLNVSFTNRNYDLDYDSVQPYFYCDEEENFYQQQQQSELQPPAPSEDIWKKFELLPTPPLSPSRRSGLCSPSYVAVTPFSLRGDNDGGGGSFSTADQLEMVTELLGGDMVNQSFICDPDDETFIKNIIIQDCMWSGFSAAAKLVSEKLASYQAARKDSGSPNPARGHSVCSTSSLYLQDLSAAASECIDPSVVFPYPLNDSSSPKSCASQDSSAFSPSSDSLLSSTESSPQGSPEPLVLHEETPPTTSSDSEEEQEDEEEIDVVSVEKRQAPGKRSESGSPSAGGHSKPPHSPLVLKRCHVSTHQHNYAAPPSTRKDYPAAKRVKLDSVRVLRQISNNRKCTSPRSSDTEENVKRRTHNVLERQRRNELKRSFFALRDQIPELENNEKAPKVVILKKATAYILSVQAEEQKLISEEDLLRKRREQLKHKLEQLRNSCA
Compound,remaining activity at 100 µM (EMSA) [%],further results
COc1ccc(-c2c(-c3ccc(OCc4ccc(Cl)cc4)cc3O)nn(C)c2C(F)(F)F)cc1OC [compound 0196311],94,
Oc1cc(OCc2ccc(Cl)cc2)ccc1-c1n[nH]cc1-c1ccccc1 [compound 0198293],70,
Cn1nc(C(F)(F)F)cc1-c1ccc(OCc2ccc(Cl)cc2)cc1Cl [compound 0200744],62,
CCc1ccc(Oc2c(-c3ccc(OCc4cccc(OC)c4)cc3O)nn(C)c2C(F)(F)F)cc1 [compound 0196298],98,
Cn1nc(-c2ccc(Nc3ccc4c(c3)OCO4)cc2O)cc1C(F)(F)F [compound 0200562],77,remaining activity at 50 µM (EMSA): 101%
Cn1nc(-c2ccc(OCc3ccc(Cl)cc3)cc2O)c(-c2cccc(C#N)c2)c1C(N)=O [compound 0200558],9,remaining activity at 50 µM (EMSA): 20%
Cn1nc(-c2ccc(OCc3ccc(Cl)cc3)cc2O)c(-c2cccc(C#N)c2)c1C(F)(F)F [compound 0198400],48,
CCc1ccc(Oc2cn(C)nc2-c2ccc(OCc3ccc(Cl)cc3)cc2O)cc1 [NUCC-0176260],,"remaining activity at 200 µM (EMSA, 200 uM test compound): 113%"
Oc1cc(OCc2ccc(Cl)cc2)ccc1-c1n[nH]c(C(F)(F)F)c1-c1ccc(C(F)(F)F)cc1 [compound 0200725],98,
NC(=O)c1cccc(-c2c(-c3ccc(OCc4ccc(Cl)cc4)cc3O)n[nH]c2C(F)(F)F)c1 [compound 0198401],77,
CCc1[nH]nc(-c2ccc(OCc3ccc(Cl)cc3)cc2O)c1-c1ccccc1 [compound 0198301],105,
Oc1cc(Nc2ccc(Cl)cc2)ccc1-c1cc(C(F)(F)F)[nH]n1 [compound 0200491],,remaining activity at 50 µM (EMSA): 73%; Bound DNA (%) (100uM) (EMSA): 0%
Cn1nc(-c2ccc(OCc3ccc(Cl)cc3)cc2O)c(-c2cccnc2)c1C(F)(F)F [compound 0196364],132,
CN1CCN(c2ccc(-c3cc(C(F)(F)F)n(C)n3)c(O)c2)CC1 [compound 0200568],93,remaining activity at 50 µM (EMSA): 109%
CN/N=C(\C)c1ccc(-c2c(C(F)(F)F)nn(C)c2-c2ccc(OCc3ccc(Cl)cc3)cc2O)cc1 [compound 0198396],56,
Cc1[nH]nc(-c2ccc(OCc3cnn(C)c3)cc2O)c1Oc1ccccc1 [NUCC-0176249],,"remaining activity at 200 µM (EMSA, 200 uM test compound): 85%"
COc1ccc(-c2c(-c3ccc(OCc4ccc(Cl)cc4)cc3O)n[nH]c2C(F)(F)F)cc1 [compound 0196312],51,
CCc1ccc(Oc2c(-c3ccccc3O)n[nH]c2C(F)(F)F)cc1 [compound 0200683],20,remaining activity at 50 µM (EMSA): 87%
N#Cc1ccc(-c2c(-c3ccc(OCc4ccc(Cl)cc4)cc3O)n[nH]c2C(F)(F)F)cc1 [compound 0198391],4,
Cc1ccc(-c2c[nH]nc2-c2ccc(OCc3ccc(Cl)cc3)cc2O)cc1 [compound 0196345],102,

Compound,remaining activity at 100 µM (EMSA) [%],further results
Oc1cc(OCc2ccc(Cl)cc2)ccc1-c1n[nH]cc1-c1cccnc1 [compound 0198320],52,
Oc1cc(OCc2ccc(Cl)cc2)ccc1-c1n[nH]cc1-c1ccoc1 [compound 0198322],28,
Cn1nc(C(F)(F)F)c(-c2cccnc2)c1-c1ccc(OCc2ccc(Cl)cc2)cc1O [compound 0196365],98,
Nc1ccc(-c2cc(C(F)(F)F)[nH]n2)c(O)c1 [compound 0200497],109,remaining activity at 50 µM (EMSA): 107%
Oc1cc(OCc2ccc(Cl)cc2)ccc1-c1n[nH]cc1Oc1ccccc1 [NUCC-0176247],,"remaining activity at 200 µM (EMSA, 200 uM test compound): 18%"
CCc1ccc(Oc2c[nH]nc2-c2ccc(OCC3CCCCC3)cc2O)cc1 [NUCC-0176256],,"Bound DNA (%) (200uM) (EMSA, 200 uM test compound): 100%; % Fraction Bound (Table 1, concentration not printed in the table (FIG. 5 and 6 legends: 200 μM test compounds)): 9.1%"
Cc1cc(C)c(-c2cn(C)nc2-c2ccc(OCc3ccc(Cl)cc3)cc2O)c(C)c1 [compound 0198360],101,
Cc1cc(C)c(-c2c[nH]nc2-c2ccc(OCc3ccc(Cl)cc3)cc2O)c(C)c1 [compound 0198359],35,
Oc1cc(OCc2ccc(Cl)cc2)ccc1-c1n[nH]c(C(F)(F)F)c1-c1ccoc1 [compound 0198325],60,
Cc1ccc(-c2c(C(F)(F)F)n[nH]c2-c2cc(OCc3ccc(Cl)cc3)ccc2O)cc1 [compound 0200572],78,remaining activity at 50 µM (EMSA): 85%
CCc1ccc(Oc2c[nH]nc2-c2ccc(OCc3ccncc3)cc2O)cc1 [NUCC-0176254],,"remaining activity at 200 µM (EMSA, 200 uM test compound): 101%"
COc1cccc(-c2c(C)nn(C)c2-c2ccc(OCc3ccc(Cl)cc3)cc2O)c1 [compound 0198313],105,
Oc1cc(OCc2ccc(Cl)cc2)ccc1-c1n[nH]c(C(F)(F)F)c1-c1ccccc1 [compound 0198295],0,
CCc1ccc(Oc2c(-c3ccc(O)cc3O)nn(C)c2C(F)(F)F)cc1 [compound 0200682],,remaining activity at 50 µM (EMSA): 101%; Bound DNA (%) (100uM) (EMSA): 95%
Oc1cc(OCc2ccc(Cl)cc2)ccc1-c1n[nH]c(C(F)(F)F)c1-c1ccccc1Cl [compound 0196363],5,
Cn1cc(C(F)(F)F)c(-c2ccc(OCc3ccc(Cl)cc3)cc2F)n1 [compound 0200743],101,
Cn1nc(-c2ccc(OCCN3CCOCC3)cc2O)c(Oc2ccccc2Cl)c1C(F)(F)F [compound 0196341],154,
N#Cc1cccc(-c2c(-c3ccc(OCc4ccc(Cl)cc4)cc3O)n[nH]c2C(N)=O)c1 [compound 0200557],53,remaining activity at 50 µM (EMSA): 46%
Oc1cc(OCc2ccc(Cl)cc2)ccc1-c1[nH]nc(C(F)(F)F)c1-c1ccc2c(c1)OCCO2 [compound 0200686],87,remaining activity at 50 µM (EMSA): 98%
CN1CCN(c2ccc(-c3cc(C(F)(F)F)[nH]n3)c(O)c2)CC1 [compound 0200567],115,remaining activity at 50 µM (EMSA): 117%

# Further lines, with some results ahead:
remaining activity at 100 µM (EMSA) [%],Compound,further results
92,NC(=O)c1ccc(Nc2ccc(-c3cc(C(F)(F)F)[nH]n3)c(O)c2)cc1 [compound 0200563],remaining activity at 50 µM (EMSA): 101%
93,Cn1nc(-c2ccc(Nc3ccc(C(N)=O)cc3)cc2O)cc1C(F)(F)F [compound 0200564],remaining activity at 50 µM (EMSA): 103%
99,Cn1nc(-c2ccc(OCc3ccc(Cl)cc3)cc2O)c(-c2ccc(C(F)(F)F)cc2)c1C(F)(F)F [compound 0200727],
13,Cn1nc(C(F)(F)F)c(Br)c1-c1ccc(OCc2ccc(Cl)cc2)cc1O [compound 0198407],
102,NC(=O)c1cc(-c2ccc(Nc3ccc(Cl)cc3)cc2O)n[nH]1 [compound 0200677],
92,COc1cccc(-c2c[nH]nc2-c2ccc(OCc3ccc(Cl)cc3)cc2O)c1 [compound 0198308],
12,CCc1ccc(Oc2c(-c3ccc(OCc4cccc(Cl)c4)cc3O)n[nH]c2C(F)(F)F)cc1 [compound 0196295],IC50: 66 µM
59,Cc1ccc(C)c(Oc2c[nH]nc2-c2ccc(OCc3ccc(Cl)cc3)cc2O)c1 [compound 0196284],
4,COc1ccc(-c2c(-c3ccc(OCc4ccc(Cl)cc4)cc3O)n[nH]c2C(F)(F)F)cc1OC [compound 0196283],IC50: 49 µM
105,COc1ccc(-c2c(C)nn(C)c2-c2ccc(OCc3ccc(Cl)cc3)cc2O)cc1 [compound 0198306],
100,Oc1cc(OCc2ccc(Cl)cc2)ccc1-c1cc(C(F)(F)F)n(Cc2ccccc2)n1 [compound 0200499],remaining activity at 50 µM (EMSA): 109%
16,Cc1ccc(-c2c(-c3ccc(OCc4ccc(Cl)cc4)cc3O)n[nH]c2C(F)(F)F)cc1 [compound 0196344],
60,Cn1nc(C(F)(F)F)c(-c2ccc(F)c(C(F)(F)F)c2)c1-c1ccc(OCc2ccc(Cl)cc2)cc1O [compound 0200735],remaining activity at 50 µM (EMSA): 84%
79,Oc1cc(OCc2ccc(Cl)cc2)ccc1-c1n[nH]c(C(F)(F)F)c1-c1cccnc1 [compound 0196366],
115,Cc1ccc(C)c(Oc2cn(C)nc2-c2ccc(OCc3cccc(Cl)c3)cc2O)c1 [compound 0196287],
105,CCc1c(-c2ccccc2)c(-c2ccc(OCc3ccc(Cl)cc3)cc2O)nn1C [compound 0198303],
65,Cn1nc(-c2ccc(OCc3ccc(Cl)cc3)cc2O)c(Oc2cccc(F)c2)c1C(F)(F)F [compound 0196302],
95,Cn1nc(C(F)(F)F)cc1-c1ccc(OCc2ccc(Cl)cc2)cn1 [compound 0200690],remaining activity at 50 µM (EMSA): 98%
100,CCOC(=O)c1[nH]nc(-c2ccc(OCc3ccc(Cl)cc3)cc2O)c1-c1ccc(C#N)cc1 [compound 0200489],remaining activity at 50 µM (EMSA): 99%
78,CCc1c(C(F)(F)F)n[nH]c1-c1ccc(OCc2ccc(Cl)cc2)cc1O [compound 0200739],
89,CN/N=C(\C)c1cccc(-c2c(-c3ccc(OCc4ccc(Cl)cc4)cc3O)nn(C)c2C(F)(F)F)c1 [compound 0198405],
9,Cn1nc(-c2ccc(OCc3ccc(Cl)cc3)cc2O)c(-c2ccc(F)cc2)c1C(F)(F)F [compound 0196348],

# — US20170253581A1, “SUBSTITUTED HETEROCYCLES AS c-MYC TARGETING AGENTS” (Northwestern University, priority 2016, published 2017)
